# Data: patent publication US12528814B2, “Bifunctional degraders of interleukin-1 receptor-associated kinases and therapeutic use thereof” (NURIX THERAPEUTICS, INC., priority 2020, dated 2026)
# Where two headings read alike, the source gives them in different places.
# Key:
# IRAK4 [1] = biological target: T1, IRAK4 (Homo sapiens (Human), UniProt Q9NWZ3); assay: IRAK4 Biochemical HTRF Kinase Assay; settings: read-out: IRAK4 HTRF biochemical: IC50
# Method in brief: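 HTRF KinEASE STK S1 format measuring IRAK4 phosphorylation of biotinylated peptide; reaction solution of 5 μM STK-S1, 10 mM ATP, 10 mM MgCl2 added (stock, to 10 μl final), 90 min at ambient temperature, detection 60 min. IC50 from sixteen-point duplicate curves by non-linear regression.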
# Target sequence in this assay (Q9NWZ3 whole entry, species assumed): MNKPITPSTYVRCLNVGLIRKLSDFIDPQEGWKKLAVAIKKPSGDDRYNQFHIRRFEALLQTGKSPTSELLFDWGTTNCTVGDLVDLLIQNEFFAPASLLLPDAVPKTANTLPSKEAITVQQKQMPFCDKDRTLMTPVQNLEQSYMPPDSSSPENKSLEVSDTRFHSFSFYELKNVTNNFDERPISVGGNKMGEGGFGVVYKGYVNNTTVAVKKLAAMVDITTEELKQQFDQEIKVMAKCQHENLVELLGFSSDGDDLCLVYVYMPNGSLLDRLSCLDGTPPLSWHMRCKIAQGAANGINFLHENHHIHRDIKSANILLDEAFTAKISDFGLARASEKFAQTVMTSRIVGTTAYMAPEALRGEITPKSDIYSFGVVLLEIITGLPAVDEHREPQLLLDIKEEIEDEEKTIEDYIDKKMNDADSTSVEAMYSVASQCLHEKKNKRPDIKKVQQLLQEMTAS
# IRAK4 [2] = biological target: T1, IRAK4; assay: IRAK4 Degradation HiBiT Assay; settings: HiBiT-tagged Jurkat cells, 4 hrs; for DC50: read-out: Cellular IRAK4 HiBiT: DC50; for Dmax: Jurkat
# Target sequence in this assay (Q9NWZ3 whole entry): as the sequence (Q9NWZ3 whole entry, species assumed) above
# [3] = read-out: Cellular IRAK4 HiBiT: Dmax, Table 5, multiple runs
# [4] = read-out: Cellular IRAK4 HiBiT: Dmax, Table 4
SMILES,"IC50 (IRAK4 [1]; Table 5, multiple runs) [nM]","DC50 (IRAK4 [2]; Table 5, multiple runs) [nM]",Dmax (IRAK4 [2]; [3]) [%],IC50 (IRAK4 [1]; Table 4) [nM],Dmax (IRAK4 [2]; [4]) [%],DC50 (IRAK4 [2]; Table 4) [nM]
"CN[C@@H](C)C(=O)N[C@H](C(=O)N1CCC[C@H]1c1nc(C(=O)c2cccc(OCCOCCOCCOCCC(=O)N3CCN(c4nnc(-c5cnc(-c6ccc7cc(C#N)cnn67)cc5NC(C)C)s4)CC3)c2)cs1)C1CCCCC1 [Example 55, (S)—N—((S)-2-((S)-2-(4-(3-(2-(2-(2-(3-(4-(5-(6-(3-cyanopyrrolo[1,2-b]pyridazin-7-yl)-4-(isopropylamino)pyridin-3-yl)-1,3,4-thiadiazol-2-yl)piperazin-1-yl)-3-oxopropoxy)ethoxy)ethoxy)ethoxy)benzoyl)thiazol-2-yl)pyrrolidin-1-yl)-1-cyclohexyl-2-oxoethyl)-2-(methylamino)propanamide]",6.6,937,45,6.6,45,934
"CNc1cc(-c2ccc3cc(C#N)cnn23)ncc1-c1nnc(C23CCC(NC(=O)CCOCCNc4ccc5c(c4)C(=O)N(C4CCC(=O)NC4=O)C5=O)(CC2)CC3)s1 (centres unmarked) [Example 102, N-(4-(5-(6-(3-cyanopyrrolo[1,2-b]pyridazin-7-yl)-4-(methylamino)pyridin-3-yl)-1,3,4-thiadiazol-2-yl)bicyclo[2.2.2]octan-1-yl)-3-(2-((2-(2,6-dioxopiperidin-3-yl)-1,3-dioxoisoindolin-5-yl)amino)ethoxy)propanamide]",0.8,25.3,91,–,–,–
"CNc1cc(-c2ccc3cc(C#N)cnn23)ncc1-c1nnc([C@H]2CC[C@H](NC[C@@H]3CCN(c4ccc5c(c4)C(=O)N(C4CCC(=O)NC4=O)C5=O)C3)CC2)s1 (stereo partly drawn) [Example 153, 7-(5-(5-((1S,4r)-4-((((3S)-1-(2-(2,6-dioxopiperidin-3-yl)-1,3-dioxoisoindolin-5-yl)pyrrolidin-3-yl)methyl)amino)cyclohexyl)-1,3,4-thiadiazol-2-yl)-4-(methylamino)pyridin-2-yl)pyrrolo[1,2-b]pyridazine-3-carbonitrile]",0.5,54.8,68,–,–,–
"CNc1cc(-c2ccc3cc(C#N)cnn23)ncc1-c1nnc(C23CCC(NC(=O)CCOCCOCCOCCNc4cccc5c4C(=O)N(C4CCC(=O)NC4=O)C5=O)(CC2)CC3)s1 (centres unmarked) [Example 110, N-(4-(5-(6-(3-cyanopyrrolo[1,2-b]pyridazin-7-yl)-4-(methylamino)pyridin-3-yl)-1,3,4-thiadiazol-2-yl)bicyclo[2.2.2]octan-1-yl)-3-(2-(2-(2-((2-(2,6-dioxopiperidin-3-yl)-1,3-dioxoisoindolin-4-yl)amino)ethoxy)ethoxy)ethoxy)propanamide]",0.7,34.2,93,–,–,–
"CN[C@@H](C)C(=O)N[C@H](C(=O)N1C[C@@H](NC(=O)CCCCCCCCCCC(=O)N2CCN(c3nnc(-c4cnc(-c5ccc6cc(C#N)cnn56)cc4NC(C)C)s3)CC2)C[C@H]1C(=O)N[C@@H]1CCCc2ccccc21)C1CCCCC1 [Example 53, (2S,4S)-4-(12-(4-(5-(6-(3-cyanopyrrolo[1,2-b]pyridazin-7-yl)-4-(isopropylamino)pyridin-3-yl)-1,3,4-thiadiazol-2-yl)piperazin-1-yl)-12-oxododecanamido)-1-((S)-2-cyclohexyl-2-((S)-2-(methylamino)propanamido)acetyl)-N—((R)-1,2,3,4-tetrahydronaphthalen-1-yl)pyrrolidine-2-carboxamide]",5.8,8750,82,5.8,48,993
"CNc1cc(-c2ccc3cc(C#N)cnn23)ncc1-c1nnc([C@H]2CC[C@@H](NC(=O)[C@H]3C[C@@H](OCCNc4cccc5c4C(=O)N(C4CCC(=O)NC4=O)C5=O)C3)CC2)s1 (stereo partly drawn) [Example 113, (1s,3S)—N-((1s,4S)-4-(5-(6-(3-cyanopyrrolo[1,2-b]pyridazin-7-yl)-4-(methylamino)pyridin-3-yl)-1,3,4-thiadiazol-2-yl)cyclohexyl)-3-(2-((2-(2,6-dioxopiperidin-3-yl)-1,3-dioxoisoindolin-4-yl)amino)ethoxy)cyclobutane-1-carboxamide]",1.2,32,76,–,–,–
"CC(C)Nc1cc(-c2ccc3cc(C#N)cnn23)ncc1-c1nnc(N2CCN(C3CCN(Cc4ccc5c(c4)C(=O)N(C4CCC(=O)NC4=O)C5=O)CC3)CC2)s1 (centres unmarked) [Example 18, 7-(5-(5-(4-(1-((2-(2,6-dioxopiperidin-3-yl)-1,3-dioxoisoindolin-5-yl)methyl)piperidin-4-yl)piperazin-1-yl)-1,3,4-thiadiazol-2-yl)-4-(isopropylamino)pyridin-2-yl)pyrrolo[1,2-b]pyridazine-3-carbonitrile]",1.9,113,87,1.9,88,123

# Next, values leading:
"IC50 (IRAK4 [1]; Table 5, multiple runs) [nM]","DC50 (IRAK4 [2]; Table 5, multiple runs) [nM]",Dmax (IRAK4 [2]; [3]) [%],IC50 (IRAK4 [1]; Table 4) [nM],Dmax (IRAK4 [2]; [4]) [%],DC50 (IRAK4 [2]; Table 4) [nM],SMILES
1.4,> 3330,–,–,–,–,"CNc1cc(-c2ccc3cc(C#N)cnn23)ncc1-c1nnc(N2CCN(C(=O)C[C@@H]3CCCN(c4cccc5c4C(=O)N(C4CCC(=O)NC4=O)C5=O)C3)CC2)s1 (stereo partly drawn) [Example 88, 7-(5-(5-(4-(2-((3S)-1-(2-(2,6-dioxopiperidin-3-yl)-1,3-dioxoisoindolin-4-yl)piperidin-3-yl)acetyl)piperazin-1-yl)-1,3,4-thiadiazol-2-yl)-4-(methylamino)pyridin-2-yl)pyrrolo[1,2-b]pyridazine-3-carbonitrile]"
1,65.9,113,–,–,–,"CNc1cc(-c2ccc3cc(C#N)cnn23)ncc1-c1nnc([C@H]2CC[C@H](N(C)C(=O)C[C@H](NC(=O)[C@@H]3C[C@@H](O)CN3C(=O)[C@@H](NC(=O)C3(F)CC3)C(C)(C)C)c3ccc(-c4scnc4C)cc3)CC2)s1 [Example 163, (2S,4R)—N—((S)-3-(((1r,4S)-4-(5-(6-(3-cyanopyrrolo[1,2-b]pyridazin-7-yl)-4-(methylamino)pyridin-3-yl)-1,3,4-thiadiazol-2-yl)cyclohexyl)(methyl)amino)-1-(4-(4-methylthiazol-5-yl)phenyl)-3-oxopropyl)-1-((S)-2-(1-fluorocyclopropane-1-carboxamido)-3,3-dimethylbutanoyl)-4-hydroxypyrrolidine-2-carboxamide]"
2.9,81.4,114,2.9,107,89.6,"CNc1cc(-c2ccc3cc(C#N)cnn23)ncc1-c1nnc([C@H]2CC[C@H](NC(=O)CCCCC(=O)N[C@H](C(=O)N3C[C@H](O)C[C@H]3C(=O)N[C@@H](C)c3ccc(-c4scnc4C)cc3)C(C)(C)C)CC2)s1 [Example 57, N1-((1r,4S)-4-(5-(6-(3-cyanopyrrolo[1,2-b]pyridazin-7-yl)-4-(methylamino)pyridin-3-yl)-1,3,4-thiadiazol-2-yl)cyclohexyl)-N6—((S)-1-((2S,4R)-4-hydroxy-2-(((S)-1-(4-(4-methylthiazol-5-yl)phenyl)ethyl)carbamoyl)pyrrolidin-1-yl)-3,3-dimethyl-1-oxobutan-2-yl)adipamide]"
0.7,42.8,113,–,–,–,CNc1cc(-c2ccc3cc(C#N)cnn23)ncc1-c1nnc(N2CC3(CCN(C(=O)C[C@H](NC(=O)[C@@H]4C[C@@H](O)CN4C(=O)[C@@H](NC(=O)C4(F)CC4)C(C)(C)C)c4ccc(-c5scnc5C)cc4)CC3)C2)s1 [Example 178]
3.7,313,115,–,–,–,"Cc1ncsc1-c1ccc(CNC(=O)[C@@H]2C[C@@H](O)CN2C(=O)[C@@H](NC(=O)C2(F)CC2)C(C)(C)C)c(OCC(=O)N2CCC(C(=O)N3CCN(c4nnc(-c5cnc(-c6ccc7cc(C#N)cnn67)cc5NC(C)C)s4)CC3)CC2)c1 [Example 80, (2S,4R)—N-(2-(2-(4-(4-(5-(6-(3-cyanopyrrolo[1,2-b]pyridazin-7-yl)-4-(isopropylamino)pyridin-3-yl)-1,3,4-thiadiazol-2-yl)piperazine-1-carbonyl)piperidin-1-yl)-2-oxoethoxy)-4-(4-methylthiazol-5-yl)benzyl)-1-((S)-2-(1-fluorocyclopropane-1-carboxamido)-3,3-dimethylbutanoyl)-4-hydroxypyrrolidine-2-carboxamide]"
5,357,97,5,97,357,"Cc1ncsc1-c1ccc([C@H](C)NC(=O)[C@@H]2C[C@@H](O)CN2C(=O)[C@@H](NC(=O)CCCCC(=O)N2CCN(c3nnc(-c4cnc(-c5ccc6cc(C#N)cnn56)cc4NC(C)C)s3)CC2)C(C)(C)C)cc1 [Example 39, (2S,4R)-1-((S)-2-(6-(4-(5-(6-(3-cyanopyrrolo[1,2-b]pyridazin-7-yl)-4-(isopropylamino)pyridin-3-yl)-1,3,4-thiadiazol-2-yl)piperazin-1-yl)-6-oxohexanamido)-3,3-dimethylbutanoyl)-4-hydroxy-N—((S)-1-(4-(4-methylthiazol-5-yl)phenyl)ethyl)pyrrolidine-2-carboxamide]"
4.6,231,111,4.6,111,231,"Cc1ncsc1-c1ccc(CNC(=O)[C@@H]2C[C@@H](O)CN2C(=O)[C@@H](NC(=O)C2(F)CC2)C(C)(C)C)c(OCCOCCOCCOCCC(=O)N2CCN(c3nnc(-c4cnc(-c5ccc6cc(C#N)cnn56)cc4NC(C)C)s3)CC2)c1 [Example 49, (2S,4R)—N-(2-(2-(2-(2-(3-(4-(5-(6-(3-cyanopyrrolo[1,2-b]pyridazin-7-yl)-4-(isopropylamino)pyridin-3-yl)-1,3,4-thiadiazol-2-yl)piperazin-1-yl)-3-oxopropoxy)ethoxy)ethoxy)ethoxy)-4-(4-methylthiazol-5-yl)benzyl)-1-((S)-2-(1-fluorocyclopropane-1-carboxamido)-3,3-dimethylbutanoyl)-4-hydroxypyrrolidine-2-carboxamide]"
